Source: ChEMBL document CHEMBL1143623, “Thyroid receptor ligands. 3. Design and synthesis of 3,5-dihalo-4-alkoxyphenylalkanoic acids as indirect antagonists of the thyroid hormone receptor” (J Med Chem, 2005)

Experiments:
[1] = biological target: T1, Thyroid hormone receptor beta (Homo sapiens, UniProt P10828); test: Inhibitory activity against human Thyroid hormone receptor beta
T1 sequence (P10828 whole entry): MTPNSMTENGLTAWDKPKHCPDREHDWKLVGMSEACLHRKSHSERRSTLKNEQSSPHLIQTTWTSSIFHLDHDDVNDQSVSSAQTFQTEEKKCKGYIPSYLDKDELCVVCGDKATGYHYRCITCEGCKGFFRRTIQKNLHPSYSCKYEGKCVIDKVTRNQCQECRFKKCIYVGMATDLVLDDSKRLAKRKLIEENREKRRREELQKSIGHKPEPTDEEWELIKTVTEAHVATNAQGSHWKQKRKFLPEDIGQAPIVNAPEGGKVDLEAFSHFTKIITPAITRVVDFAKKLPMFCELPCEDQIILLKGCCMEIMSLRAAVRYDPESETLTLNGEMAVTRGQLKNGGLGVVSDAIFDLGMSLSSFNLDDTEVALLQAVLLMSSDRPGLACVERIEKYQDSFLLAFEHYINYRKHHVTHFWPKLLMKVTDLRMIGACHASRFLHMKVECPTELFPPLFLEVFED

[2] = biological target: T2, Thyroid hormone receptor alpha (Homo sapiens, UniProt P10827); test: Inhibitory activity against human Thyroid hormone receptor alpha
T2 sequence (P10827 whole entry): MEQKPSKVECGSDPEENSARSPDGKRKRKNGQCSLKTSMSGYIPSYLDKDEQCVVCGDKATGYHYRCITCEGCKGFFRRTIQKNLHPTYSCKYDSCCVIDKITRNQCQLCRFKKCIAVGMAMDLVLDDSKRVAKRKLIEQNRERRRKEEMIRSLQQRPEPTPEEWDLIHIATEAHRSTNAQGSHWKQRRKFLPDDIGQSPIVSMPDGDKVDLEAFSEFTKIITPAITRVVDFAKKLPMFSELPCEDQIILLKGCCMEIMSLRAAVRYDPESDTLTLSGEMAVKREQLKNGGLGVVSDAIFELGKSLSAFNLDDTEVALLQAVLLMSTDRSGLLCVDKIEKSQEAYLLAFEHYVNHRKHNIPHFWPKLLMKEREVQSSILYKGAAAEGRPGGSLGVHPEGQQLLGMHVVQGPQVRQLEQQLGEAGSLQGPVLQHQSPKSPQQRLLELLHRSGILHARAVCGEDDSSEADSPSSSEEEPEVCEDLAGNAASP

[3] = biological target: T2, Thyroid hormone receptor alpha; test: Inhibitory activity against human TRAFalpha
[4] = biological target: T1, Thyroid hormone receptor beta; test: Inhibitory activity against human TRAFbeta
[5] = biological target: T3, Thyroid hormone receptor (Homo sapiens, UniProt P10827+P10828); test: Binding affinity for human Thyroid hormone receptor; type: protein-complex assay
T3 sequence (P10827 whole entry): T2 sequence (P10827 whole entry)
T3 sequence (P10828 whole entry): T1 sequence (P10828 whole entry)

Structure (SMILES)	IC50 [1] [nM]	IC50 [2] [nM]	IC50 [3] [nM]	IC50 [4] [nM]	Ki [5] [nM]
CCCCCOc1c(Br)cc(CC(=O)O)cc1Br	5700	20000	–	–	–
O=C(O)CCc1cc(Br)c(OCC2CCCCC2)c(Br)c1	190	460	530	120	–
O=C(O)Cc1cc(Br)c(OCC2CCCCC2)c(Br)c1	770	2700	420	520	–
CCC(CC)COc1c(Br)cc(CC(=O)O)cc1Br	800	6900	820	700	–
CCC(CC)COc1c(Br)cc(CCC(=O)O)cc1Br	810	1600	–	–	–
CCCCCCOc1c(Br)cc(CCC(=O)O)cc1Br	360	1100	600	1000	–
CCCCOc1c(Br)cc(CC(=O)O)cc1Br	1900	26000	–	–	–
CC(C)c1cc(Oc2c(Br)cc(C(=O)O)cc2Br)cc(C(C)C)c1O	–	–	1100	4500	1380
CCCCCCOc1c(Br)cc(CC(=O)O)cc1Br	1500	5200	700	800	–
CCCCc1oc2ccccc2c1C(=O)c1cc(I)c(CCN(CC)CC)c(I)c1	600	650	> 10000	> 10000	–
Cc1oc2ccccc2c1Cc1cc(I)c(OCC(=O)O)c(I)c1	–	–	2200	4100	–
CC(C)CCOc1c(Br)cc(CC(=O)O)cc1Br	18000	13000	–	–	–
CCOc1c(Br)cc(CC(=O)O)cc1Br	32000	160000	–	–	–
CC(C)CCOc1c(Br)cc(CCC(=O)O)cc1Br	1800	4400	–	–	–
